In PMC7794376 (Nature Communications, 2021):
≈ marks a conversion by molar mass, not a printed value. Where “and” joins values, the source holds several entries; their conditions need not be identical. Equal entries are not always repeated. Where two headings read alike, the source gives them in different places.

How the values were obtained:
[1] = biological target: T1, MtbCoaBC (Mycobacterium tuberculosis, UniProt P9WNZ1); experiment: biochemical; assay type: biochemical; details: for activity at 0.5 µM: relative to average DMSO CT
[2] = tested on: M. tuberculosis coaBC Tet-OFF conditional knockdown; assay type: cell-based, Mycobacterium tuberculosis; details: GAST/Fe minimal media
[3] = biological target: MsmCoaBC (Mycolicibacterium smegmatis, UniProt A0QWT2); experiment: EnzChek pyrophosphate assay, CoaB activity of MsmCoaBC; assay type: biochemical, Mycobacterium smegmatis; details: for Activity: slope of absorbance at 360 nm vs time (s); for inhibition, IC50 MsmCoaBC 2b / reaction rate (slope of absorbance at 360 nm over time), IC50 MsmCoaBC 2b / remaining activity relative to control, IC50 MsmCoaBC 2b: triplicate
Experimental: The commercially available EnzChek pyrophosphate assay kit (E-6645) (Life Technologies) was used for this assay. […] In the assays with HCoaB an enzyme concentration of 1 µM was used instead. […] Assays were performed on either a CLARIOstar or PHERAstar microplate reader (BMG Labtech) in 96-well plates (Greiner). A substrate mixture containing the substrates and the inhibitor was pre-incubated at 25 °C for 10 min. An enzyme solution was prepared and separately pre-incubated at 25 °C for 10 min. The reaction was initiated by the addition of the substrates to the solution containing the enzyme to a final volume of 75 µL. Enzymatic activity was monitored by following the absorbance at 360 nm for 30 min (100 cycles/20 s each cycle) and only the steady-state region of the assay was used for data analysis. Assays were performed in triplicates, including a negative control (lacking PPA) and a positive control (lacking inhibitor).

[4] = biological target: T1, MtbCoaBC; experiment: CMP quantification assay (UPLC), second half of CoaB reaction, variable L-cysteine; assay type: biochemical; details: for uM CMP/uM protein.s-1 (rate of CMP formation): MtbCoaBC 32nM, replicates R1-R3
[5] = biological target: T1, MtbCoaBC; experiment: High-throughput end-point pyrophosphate quantification assay (Biomol Green); assay type: biochemical; details: MtbCoaB activity; end-point, 2 µM CTP, 40 µM L-cysteine, 30 µM PPA; read-out: IC50 biomol green assay
[6] = tested on: M. tuberculosis H37Rv; experiment: MIC determination in different media; assay type: cell-based; details: Mycobacterium tuberculosis, read-out: Minimum inhibitory concentration (MIC)
[7] = inhibitor concentration 1 (log 0), unit not shown, three replicates
[8] = inhibitor concentration 2 (log 0.30103), unit not shown, three replicates
[9] = 0.015625 uM 2b, relative to average DMSO CT, replicates R1-R3
[10] = 0.015625 uM 2b, replicates R1-R3
[11] = 0.03125 uM 2b, relative to average DMSO CT, replicates R1-R3
[12] = 0.03125 uM 2b, replicates R1-R3
[13] = 0.0625 uM 2b, relative to average DMSO CT, replicates R1-R3
[14] = 0.25 uM 2b, relative to average DMSO CT, replicates R1-R3
[15] = 0.5 uM 2b, relative to average DMSO CT, replicates R1-R3
[16] = inhibitor concentration 1 (log 0; unit not given)
[17] = inhibitor concentration 2 (log 0.30103; unit not given)

T1 sequence (P9WNZ1 whole entry): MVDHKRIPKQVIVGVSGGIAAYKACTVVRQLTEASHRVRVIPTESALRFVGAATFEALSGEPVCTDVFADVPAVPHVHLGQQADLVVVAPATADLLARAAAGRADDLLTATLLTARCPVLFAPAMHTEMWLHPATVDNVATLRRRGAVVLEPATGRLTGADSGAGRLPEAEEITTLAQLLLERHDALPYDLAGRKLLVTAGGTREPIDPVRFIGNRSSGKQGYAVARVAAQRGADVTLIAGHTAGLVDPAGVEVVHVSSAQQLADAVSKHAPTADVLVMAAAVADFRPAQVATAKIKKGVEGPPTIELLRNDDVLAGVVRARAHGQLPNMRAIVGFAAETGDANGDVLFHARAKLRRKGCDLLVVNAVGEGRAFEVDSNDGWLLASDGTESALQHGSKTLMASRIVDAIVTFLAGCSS
MsmCoaBC, sequence (A0QWT2 whole entry): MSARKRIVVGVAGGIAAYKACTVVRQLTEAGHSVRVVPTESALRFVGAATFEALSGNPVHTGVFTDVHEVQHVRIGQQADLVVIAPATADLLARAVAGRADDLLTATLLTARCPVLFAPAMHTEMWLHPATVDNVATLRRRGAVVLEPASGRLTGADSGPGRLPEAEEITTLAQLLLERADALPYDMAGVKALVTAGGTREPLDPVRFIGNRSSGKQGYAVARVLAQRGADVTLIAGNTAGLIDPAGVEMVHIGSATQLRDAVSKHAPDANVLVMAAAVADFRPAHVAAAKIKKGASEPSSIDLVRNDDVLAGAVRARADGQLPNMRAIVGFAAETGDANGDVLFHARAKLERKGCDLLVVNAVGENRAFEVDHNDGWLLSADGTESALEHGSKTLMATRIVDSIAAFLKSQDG

O=c1cc(-c2ccc(O)c(O)c2)oc2cc(O)c(O)cc12 [compound 2b]
inhibition at 0.5 µM ([1]; 0.5 uM 2b, replicate R2, read-out: Inhibition % R2): 99% | activity at 0.5 µM ([1]; 0.5 uM 2b, replicate R2, read-out: Activity % R2): 1% | inhibition at 0.5 µM ([1]; 0.5 uM 2b, replicate R3, read-out: Inhibition % R3): 97% | activity at 0.5 µM ([1]; 0.5 uM 2b, replicate R3, read-out: Activity % R3): 3% | Activity R3 ([1]; 0.5 uM 2b, replicate R3, slope of absorbance at 360 nm vs time (s)): 0.000005588 | inhibition, IC50 MtbCoaBC 2b [1, 7]: 99.01 | reaction rate (slope of absorbance at 360 nm vs time), IC50 MtbCoaBC 2b [1, 7]: 0.000001846 and 0.000001860 and -0.000003443 | remaining activity relative to control, IC50 MtbCoaBC 2b [1, 7]: 0.9903 and 0.9976 and -1.847 | reaction rate (slope of absorbance at 360 nm vs time), IC50 MtbCoaBC 2b [1, 8]: -0.000001738 and -0.000001919 and -0.000000593 | remaining activity relative to control, IC50 MtbCoaBC 2b [1, 8]: -0.932 and -1.029 and -0.318 | IC50 ([1]; read-out: IC50 EnzChek MtbCoaBC): 80 ± 10 nM | inhibition at 0.25 µM ([1]; read-out: Inhibition % R2): 95.7% | sensitisation on incremental silencing of CoaBC [2]: did not sensitise M. tuberculosis further | IC50 [3]: 180 ± 20 nM | Activity % [3, 9]: 94.35% and 94.28% | activity at 0.015625 µM [3, 9]: 95.3% | Inhibition % [3, 10]: 5.72% and 4.75% | inhibition at 0.015625 µM [3, 10]: 5.65% | Activity [3, 10]: 0.0002955 and 0.0002927 and 0.0002925 | Activity % [3, 11]: 88.08% and 86.2% | activity at 0.03125 µM [3, 11]: 89.5% | Inhibition % [3, 12]: 13.80% and 10.50% | inhibition at 0.03125 µM [3, 12]: 11.9% | Activity [3, 12]: 0.0002776 and 0.0002732 and 0.0002674 | Activity % [3, 13]: 71.12% and 70.67% | activity at 0.0625 µM [3, 13]: 74.4% | Inhibition % ([3]; 0.0625 uM 2b, replicates R1-R3): 29.33% and 25.59% | inhibition at 0.0625 µM ([3]; 0.0625 uM 2b, replicates R1-R3): 28.9% | Activity ([3]; 0.0625 uM 2b, replicates R1-R3): 0.0002308 and 0.0002206 and 0.0002192 | Activity % [3, 14]: 41.76% and 47.03% | activity at 0.25 µM [3, 14]: 45.6% | Inhibition % ([3]; 0.25 uM 2b, replicates R1-R3): 52.97% and 54.45% | inhibition at 0.25 µM ([3]; 0.25 uM 2b, replicates R1-R3): 58.2% | Activity ([3]; 0.25 uM 2b, replicates R1-R3): 0.0001413 and 0.0001296 and 0.0001459 | Activity % [3, 15]: 29.05% and 29.76% | activity at 0.5 µM [3, 15]: 30.5% | Inhibition % ([3]; 0.5 uM 2b, replicates R1-R3): 70.24% and 69.54% | inhibition at 0.5 µM ([3]; 0.5 uM 2b, replicates R1-R3): 71% | Activity ([3]; 0.5 uM 2b, replicates R1-R3): 0.000094507 and 0.000090122 and 0.000092326 | inhibition, IC50 MsmCoaBC 2b [3, 16]: 88.05 and 84.53 and 91.37 | reaction rate (slope of absorbance at 360 nm over time), IC50 MsmCoaBC 2b [3, 16]: 0.000026783 and 0.000037077 and 0.000047977 | remaining activity relative to control, IC50 MsmCoaBC 2b [3, 16]: 8.633 and 11.95 and 15.47 | inhibition, IC50 MsmCoaBC 2b [3, 17]: 96.00 and 96.49 and 94.20 | reaction rate (slope of absorbance at 360 nm over time), IC50 MsmCoaBC 2b [3, 17]: 0.000017982 and 0.000012403 and 0.000010882 | remaining activity relative to control, IC50 MsmCoaBC 2b [3, 17]: 5.796 and 3.998 and 3.508 | uM CMP/uM protein.s-1 (rate of CMP formation) ([4]; 0.03125uM 2b, 31.25 uM cysteine): 0.1688 uM CMP/uM protein.s-1 and 0.1774 uM CMP/uM protein.s-1 and 0.1722 uM CMP/uM protein.s-1 | uM CMP/uM protein.s-1 (rate of CMP formation) ([4]; 0.03125uM 2b, 62.5 uM cysteine): 0.2177 uM CMP/uM protein.s-1 and 0.2245 uM CMP/uM protein.s-1 and 0.2185 uM CMP/uM protein.s-1 | uM CMP/uM protein.s-1 (rate of CMP formation) ([4]; 0.03125uM 2b, 250 uM cysteine): 0.2696 uM CMP/uM protein.s-1 and 0.2689 uM CMP/uM protein.s-1 and 0.2761 uM CMP/uM protein.s-1 | uM CMP/uM protein.s-1 (rate of CMP formation) ([4]; 0.03125uM 2b, 500 uM cysteine): 0.3036 uM CMP/uM protein.s-1 and 0.2988 uM CMP/uM protein.s-1 and 0.3158 uM CMP/uM protein.s-1 | uM CMP/uM protein.s-1 (rate of CMP formation) ([4]; 0.0625uM 2b, 31.25 uM cysteine): 0.139 uM CMP/uM protein.s-1 and 0.1432 uM CMP/uM protein.s-1 and 0.1461 uM CMP/uM protein.s-1 | uM CMP/uM protein.s-1 (rate of CMP formation) ([4]; 0.0625uM 2b, 62.5 uM cysteine): 0.1762 uM CMP/uM protein.s-1 and 0.1605 uM CMP/uM protein.s-1 and 0.1802 uM CMP/uM protein.s-1 | uM CMP/uM protein.s-1 (rate of CMP formation) ([4]; 0.0625uM 2b, 250 uM cysteine): 0.2128 uM CMP/uM protein.s-1 and 0.2019 uM CMP/uM protein.s-1 and 0.2135 uM CMP/uM protein.s-1 | uM CMP/uM protein.s-1 (rate of CMP formation) ([4]; 0.0625uM 2b, 500 uM cysteine): 0.2223 uM CMP/uM protein.s-1 and 0.2126 uM CMP/uM protein.s-1 and 0.2324 uM CMP/uM protein.s-1 | mode of inhibition ([4]; relative to L-cysteine, in words): uncompetitive inhibition | IC50 [5]: 100 nM | MIC ([6]; 7H9/ADC/Glycerol): > 250 µM | MIC ([6]; 7H9/Cholesterol/Tyloxapol): > 250 µM | MIC ([6]; GAST/Fe): 50 µM (≈ 14.3 µg/mL)
